In the NIST ThermoML archive (doi:10.1007/s10765-006-0110-x):
Numbers after ± are expanded uncertainties.

Settings: Liquid, Pulse-echo method

COCCOCCOC [2,5,8-trioxanonane]
speed of sound [m/s]
Settings	293.15 K	303.15 K	313.15 K	323.15 K	333.15 K	343.15 K	353.15 K
100 kPa	1298.9 ± 5.3	1259.3 ± 5.1	1219.9 ± 4.9	1180.9 ± 4.8	1142.4 ± 4.6	1104.2 ± 4.5	1066.6 ± 4.3
10000 kPa	1344.9 ± 5.4	1306.7 ± 5.3	1269.5 ± 5.1	1232.5 ± 5	1196.4 ± 4.8	1160.8 ± 4.7	1125.7 ± 4.6
20000 kPa	1386.5 ± 5.6	1350.6 ± 5.5	1315.4 ± 5.3	1280.2 ± 5.2	1246 ± 5	1212 ± 4.9	1179.3 ± 4.8
30000 kPa	1426.6 ± 5.8	1392 ± 5.6	1357.6 ± 5.5	1324.4 ± 5.4	1291.4 ± 5.2	1259.5 ± 5.1	1228.1 ± 5
40000 kPa	1463.9 ± 5.9	1430.4 ± 5.8	1397.8 ± 5.7	1365.5 ± 5.5	1333.7 ± 5.4	1303.1 ± 5.3	1273.4 ± 5.2
50000 kPa	1499.2 ± 6.1	1466.9 ± 5.9	1435.3 ± 5.8	1404 ± 5.7	1373.6 ± 5.6	1343.9 ± 5.4	1314.9 ± 5.3
60000 kPa	1532.5 ± 6.2	1501.5 ± 6.1	1470.5 ± 5.9	1440.6 ± 5.8	1410.9 ± 5.7	1382.1 ± 5.6	1354.4 ± 5.5
70000 kPa	1565.1 ± 6.3	1534.3 ± 6.2	1504.4 ± 6.1	1475.2 ± 6	1446.2 ± 5.8	1418.6 ± 5.7	1391.3 ± 5.6
80000 kPa	1595.5 ± 6.4	1565.8 ± 6.3	1536.7 ± 6.2	1508.2 ± 6.1	1480.1 ± 6	1452.9 ± 5.9	1426.7 ± 5.8
90000 kPa	1624.9 ± 6.6	1595.9 ± 6.4	1567.6 ± 6.3	1539.8 ± 6.2	1512.3 ± 6.1	1485.9 ± 6	1460.4 ± 5.9
100000 kPa	1653.4 ± 6.7	1625.1 ± 6.6	1597 ± 6.4	1569.9 ± 6.3	1543.1 ± 6.2	1517.4 ± 6.1	1492.3 ± 6
